ChEMBL document CHEMBL4004864, “Synthetic analogs of rhamnolipids modulate structured biofilms formed by rhamnolipid-nonproducing mutant of Pseudomonas aeruginosa” (Bioorg Med Chem, 2017)
Calls of active or inactive are those of the source. No cut-off for these calls is given here.

Legend:
Pseudomonas aeruginosa [1] = test: (§1) Antibiofilm activity against Pseudomonas aeruginosa PW6886 harboring rhlA-E08::ISphoA/hah mutant preformed biofilms assessed as reduction in biofilm bacterial count at 20 to 340 uM preincubated for 24 hrs under non-shaking condition followed by second incubation for 1 hr after compound washout and subsequent compound addition and measured after 1 hr incubation under non-shaking condition by crystal-violet staining based assay; format: functional
Pseudomonas aeruginosa [2] = test: Induction of swarming motility of Pseudomonas aeruginosa PW6886 harboring rhlA-E08::ISphoA/hah mutant at 5 to 100 uM after 24 hrs; format: functional
Pseudomonas aeruginosa [3] = test: Inhibition of biofilm formation in Pseudomonas aeruginosa PW6886 harboring rhlA-E08::ISphoA/hah mutant expressing EGFP at 20 to 340 uM after 48 hrs under shaking condition by confocal laser scanning microscopy; format: functional
Pseudomonas aeruginosa [4] = test: Effect on biofilm formation in Pseudomonas aeruginosa PW6886 harboring rhlA-E08::ISphoA/hah mutant at 10 to 340 uM after 24 hrs under non-shaking condition by crystal-violet staining based assay; format: functional
Pseudomonas aeruginosa [5] = test: Induction of biofilm formation in Pseudomonas aeruginosa PW6886 harboring rhlA-E08::ISphoA/hah mutant expressing EGFP at 20 to 340 uM after 48 hrs under shaking condition by confocal laser scanning microscopy; format: functional
Pseudomonas aeruginosa [6] = test: Induction of swarming motility of wild-type Pseudomonas aeruginosa PAO1 at 5 to 100 uM after 24 hrs; format: functional
Pseudomonas aeruginosa [7] = test: as §1, with “at” for “at 20 to”; format: functional
Pseudomonas aeruginosa [8] = test: Induction of structured biofilm formation in eGFP-fused Pseudomonas aeruginosa PW6886 harboring rhlA-E08::ISphoA/hah mutant at 20 uM after 24 hrs under shaking condition by confocal laser scanning microscopy; format: functional
Pseudomonas aeruginosa [9] = test: Induction of biofilm formation in Pseudomonas aeruginosa PW6886 harboring rhlA-E08::ISphoA/hah mutant expressing EGFP assessed as reduction in exopolymers covering the bottom of well at 20 to 85 uM after 24 hrs under shaking condition by confocal laser scanning microscopy; format: functional
Pseudomonas aeruginosa [10] = test: Bactericidal activity against Pseudomonas aeruginosa PW6886 harboring rhlA-E08::ISphoA/hah mutant at 20 to 340 uM under shaking condition
Pseudomonas aeruginosa [11] = test: Inhibition of biofilm formation in Pseudomonas aeruginosa PW6886 harboring rhlA-E08::ISphoA/hah mutant at 340 uM under non-shaking condition after 24 hrs by crystal-violet staining based assay; format: functional
Pseudomonas aeruginosa [12] = test: Induction of biofilm formation in eGFP-fused Pseudomonas aeruginosa PW6886 harboring rhlA-E08::ISphoA/hah mutant at 20 uM after 48 hrs under shaking condition by confocal laser scanning microscopy; format: functional
Pseudomonas aeruginosa [13] = test: Inhibition of biofilm formation in eGFP-fused Pseudomonas aeruginosa PW6886 harboring rhlA-E08::ISphoA/hah mutant at 340 uM by COMSTAT based quantification relative to control; format: functional
Pseudomonas aeruginosa [14] = test: as §1, with “40” for “340”; format: functional
Pseudomonas aeruginosa [15] = test: Inhibition of biofilm formation in eGFP-fused Pseudomonas aeruginosa PW6886 harboring rhlA-E08::ISphoA/hah mutant at 340 uM after 48 hrs under shaking condition by confocal laser scanning microscopy; format: functional
Pseudomonas aeruginosa [16] = test: Induction of biofilm formation in Pseudomonas aeruginosa PW6886 harboring rhlA-E08::ISphoA/hah mutant at 20 to 170 uM after 24 hrs under non-shaking condition by crystal-violet staining based assay; format: functional
Pseudomonas aeruginosa [17] = test: Inhibition of biofilm formation in eGFP-fused Pseudomonas aeruginosa PW6886 harboring rhlA-E08::ISphoA/hah mutant at 340 uM after 24 hrs under shaking condition by confocal laser scanning microscopy; format: functional
Pseudomonas aeruginosa [18] = test: Induction of biofilm formation in Pseudomonas aeruginosa PW6886 harboring rhlA-E08::ISphoA/hah mutant expressing EGFP at 40 uM after 24 hrs under non-shaking condition by confocal laser scanning microscopy; format: functional
Pseudomonas aeruginosa [19] = test: Induction of biofilm formation in eGFP-fused Pseudomonas aeruginosa PW6886 harboring rhlA-E08::ISphoA/hah mutant at 20 to 40 uM by COMSTAT based quantification relative to control; format: functional
Pseudomonas aeruginosa [20] = test: Induction of tendril formation in Pseudomonas aeruginosa PAO1 at > 85 uM after 24 hrs; format: functional
Pseudomonas aeruginosa [21] = test: Induction of tendril formation in Pseudomonas aeruginosa PW6886 harboring rhlA-E08::ISphoA/hah mutant at 5 to 100 uM after 24 hrs; format: functional
Pseudomonas aeruginosa [22] = test: Induction of swarming motility of wild-type Pseudomonas aeruginosa PAO1 at 50 uM after 24 hrs; format: functional

Row | SMILES | Activity (Pseudomonas aeruginosa [1]) | Activity (Pseudomonas aeruginosa [2]) | inhibition (Pseudomonas aeruginosa [3]) | Activity (Pseudomonas aeruginosa [4]) | Activity (Pseudomonas aeruginosa [5]) | Activity (Pseudomonas aeruginosa [6]) | Activity (Pseudomonas aeruginosa [7]) | Activity (Pseudomonas aeruginosa [8]) | Activity (Pseudomonas aeruginosa [10]) | inhibition (Pseudomonas aeruginosa [11]) | Activity (Pseudomonas aeruginosa [12]) | inhibition at 340 µM (Pseudomonas aeruginosa [13]) | Activity (Pseudomonas aeruginosa [14]) | inhibition (Pseudomonas aeruginosa [15]) | Activity (Pseudomonas aeruginosa [16]) | inhibition (Pseudomonas aeruginosa [17]) | Activity (Pseudomonas aeruginosa [18]) | Activity (Pseudomonas aeruginosa [19]) | further results
1 | CCCOCCCCCCCCO[C@@H]1O[C@H](CO)[C@@H](O[C@H]2O[C@H](CO)[C@@H](O)[C@H](O)[C@H]2O)[C@H](O)[C@H]1O | inactive | inactive | inactive | inactive | inactive | inactive |  |  |  |  |  |  |  |  |  |  |  |  | 
2 | CC(C)CCCC(C)CCCC(C)CCO[C@@H]1O[C@H](CO)[C@@H](O[C@H]2O[C@H](CO)[C@@H](O)[C@H](O)[C@H]2O)[C@H](O)[C@H]1O (some centres not stated) |  |  |  |  |  |  | Active | Active | Non-Toxic | Active | Active | 80% | inactive | Active | Active | Active | Active | 10 - 60% | Activity (Pseudomonas aeruginosa [9]): Active
3 | CCCCCCCCCCCCO[C@@H]1O[C@H](CO)[C@@H](O[C@H]2O[C@H](CO)[C@@H](O)[C@H](O)[C@H]2O)[C@H](O)[C@H]1O |  | Active |  |  |  |  | Active | Active | Non-Toxic |  | inactive | 80% | inactive | inactive | Active | Active |  | 10 - 60% | Activity (Pseudomonas aeruginosa [20]): Active; Activity (Pseudomonas aeruginosa [21]): Active; Activity (Pseudomonas aeruginosa [22]): Active
4 | O=C(c1ccccc1)c1ccc(COCCCCCCCCCCO[C@@H]2O[C@H](CO)[C@@H](O[C@H]3O[C@H](CO)[C@@H](O)[C@H](O)[C@H]3O)[C@H](O)[C@H]2O)cc1 |  |  |  |  |  |  | Active | Active | Non-Toxic |  | Active | 80% | inactive | Active | Active | Active | Active | 10 - 60% | 
5 | CCCCCCOCCCCCO[C@@H]1O[C@H](CO)[C@@H](O[C@H]2O[C@H](CO)[C@@H](O)[C@H](O)[C@H]2O)[C@H](O)[C@H]1O | inactive | inactive | inactive | inactive | inactive | inactive |  |  | Non-Toxic |  |  |  |  |  |  |  |  |  | 
6 | CC(C)CCCC(C)CCCC(C)CCO[C@@H]1O[C@H](CO)[C@@H](O[C@@H]2O[C@H](CO)[C@@H](O)[C@H](O)[C@H]2O)[C@H](O)[C@H]1O (some centres not stated) |  |  |  |  |  |  | Active | Active |  | Active | Active | 80% | inactive | Active | Active | Active | Active | 10 - 60% | 
